Experiments:
rat [1] = settings: Developmental neurotoxicity study; other; Oral; Water; dose end: 20 PND; group: cannot be grouped; systemic / in life observation / body weight / body weight gain + systemic / in life observation / food consumption / food consumption + …
mouse [2] = settings: Prenatal developmental toxicity study, cd1, Oral, Gavage/Intubation, dose end: 16 GD
mouse [3] = settings: Developmental neurotoxicity study; cd1; Injection; Subcutaneous; dose end: 35 PND; group: cannot be grouped; developmental / developmental landmark / eye opening / eye opening + systemic / in life observation / clinical signs / [other] + systemic / …
mouse [4] = settings: Subchronic oral toxicity in rodents, b6c3f1, Water, dose end: 30 day, group: systemic
rat [5] = settings: Subchronic oral toxicity in rodents, sprague dawley, Feed, dose end: 90 day
rat [6] = settings: Combined chronic toxicity/carcinogenicity, sprague dawley, Oral, Feed, dose end: 24 month, group: systemic
rat [7] = settings: Prenatal developmental toxicity study, wistar, Oral, Gavage/Intubation, dose end: 16 GD
mouse [8] = settings: Carcinogenicity, other, Oral, Feed, dose end: 24 month, group: systemic
dog [9] = settings: Chronic toxicity, beagle, Oral, Feed, dose end: 54 week, group: systemic
rat [10] = settings: Combined chronic toxicity/carcinogenicity; sprague dawley; Oral; Feed; dose end: 104 week; group: systemic; systemic / in life observation / body weight / body weight gain + systemic / pathology microscopic / blood vessel / aneurysm + systemic / …
mouse [11] = settings: Subchronic oral toxicity in rodents, cd1, Feed, dose end: 13 week, group: systemic, systemic / hematology / hemoglobin (hgb) / hemoglobin (hgb) + systemic / hematology / mean corpuscular hemoglobin concentration (mchc) / …
mouse [12] = settings: Combined chronic toxicity/carcinogenicity, other, Oral, Feed, dose end: 24 month, group: systemic
rat [13] = settings: Carcinogenicity; other; Oral; Feed; dose end: 82 week; group: systemic; systemic / in life observation / clinical signs / fur (altered appearance) + systemic / in life observation / clinical signs / hunched …
rabbit = settings: Prenatal developmental toxicity study, new zealand white, Oral, Gavage/Intubation, dose end: 19 GD, group: maternal
rat [14] = settings: Prenatal developmental toxicity study, sprague dawley, Oral, Gavage/Intubation, dose end: 16 GD
rat [15] = settings: Combined chronic toxicity/carcinogenicity; sprague dawley; Oral; Feed; dose end: 24 month; group: systemic; systemic / clinical chemistry / sodium / sodium
dog [16] = settings: Chronic toxicity; beagle; Oral; Feed; dose end: 12 month; group: systemic; systemic / clinical chemistry / sodium / sodium + systemic / in life observation / body weight / body weight + systemic / in life …
rat [17] = settings: Combined chronic toxicity/carcinogenicity, wistar, Oral, Feed, dose end: 104 week, group: systemic
mouse [18] = settings: Carcinogenicity, other, Oral, Feed, dose end: 92 week, group: systemic
rat [19] = settings: Carcinogenicity, fischer, Oral, Feed, dose end: 78 week, group: systemic
mouse [20] = settings: Carcinogenicity, b6c3f1, Oral, Feed, dose end: 58 week, group: systemic
rat [21] = settings: Subchronic oral toxicity in rodents, fischer, Water, dose end: 13 week, group: systemic
rat [22] = settings: Subchronic oral toxicity in rodents, fischer, Water, dose end: 13 week, group: systemic; remark: listed apart in the source
rat [23] = settings: Combined chronic toxicity/carcinogenicity; fischer; Oral; Water; dose end: 21 month; group: systemic; systemic / pathology microscopic / heart / thrombus + systemic / pathology microscopic / liver / degeneration + systemic / pathology …
[24] = group: developmental, developmental / developmental malformation / bone / supernumerary + developmental / developmental malformation / general / hemorrhage + …
[25] = group: maternal, reproductive / reproductive performance / resorptions / resorptions + systemic / in life observation / clinical signs / abnormal movements…
[26] = systemic / clinical chemistry / triglycerides / triglycerides
[27] = systemic / organ weight / kidney / absolute + systemic / organ weight / kidney / relative to body weight + systemic / organ weight / liver…
[28] = group: cholinesterase, cholinesterase / cholinesterase / cholinesterase / plasma cholinesterase (che)
[29] = group: systemic, systemic / hematology / mean corpuscular hemoglobin concentration (mchc) / mean corpuscular hemoglobin concentration (mchc) + systemic / …
[30] = group: systemic, systemic / pathology microscopic / kidney / pigmentation
[31] = systemic / in life observation / body weight / body weight gain + systemic / pathology gross / kidney / enlarged + systemic / pathology …
[32] = group: developmental, developmental / developmental malformation / bone / fragmented + systemic / in life observation / clinical signs / reduced body size
[33] = group: maternal, systemic / in life observation / body weight / body weight gain + systemic / in life observation / clinical signs / convulsions + systemic…
[34] = systemic / in life observation / mortality / mortality
[35] = systemic / pathology gross / urinary bladder / thickened
[36] = systemic / in life observation / clinical signs / [other] + systemic / in life observation / body weight / body weight + systemic / in life …
[37] = systemic / in life observation / clinical signs / [other] + systemic / in life observation / body weight / body weight gain + systemic / in …
[38] = systemic / in life observation / mortality / mortality + systemic / in life observation / body weight / body weight gain
[39] = systemic / organ weight / liver / relative to body weight
[40] = systemic / organ weight / liver / relative to body weight + reproductive / reproductive performance / aborted / aborted + reproductive / …
[41] = group: developmental, developmental / developmental malformation / bone / incomplete ossification + systemic / in life observation / body weight / fetal weight + …
[42] = group: maternal, systemic / in life observation / body weight / body weight + systemic / in life observation / body weight / body weight gain + systemic / in…
[43] = systemic / pathology microscopic / liver / hypertrophy + systemic / pathology microscopic / thyroid gland / [other]
[44] = systemic / pathology microscopic / liver / hypertrophy + systemic / pathology microscopic / thyroid gland / [other] + systemic / in life …
[45] = systemic / pathology microscopic / liver / depletion glycogen
[46] = systemic / pathology microscopic / liver / depletion glycogen + systemic / pathology microscopic / lung / adenocarcinoma + systemic / …
[47] = systemic / pathology microscopic / liver / neoplastic nodule
[48] = systemic / pathology microscopic / liver / hyperplasia
[49] = systemic / pathology microscopic / liver / hyperplasia + systemic / pathology microscopic / liver / adenoma + systemic / pathology …
[50] = systemic / clinical chemistry / creatinine / creatinine + systemic / clinical chemistry / thyroxine (t4) / thyroxine (t4), total + systemic…
[51] = systemic / in life observation / body weight / body weight + systemic / pathology microscopic / kidney / nephropathy + systemic / pathology …
[52] = systemic / in life observation / body weight / body weight gain + systemic / organ weight / kidney / relative to body weight + systemic / …

CN1CCC[C@H]1c1cccnc1 [Nicotine]
LEL (rat [1]): 2.9 mg/kg/day
LOAEL (rat [1]): > 4.4 mg/kg/day
NEL (rat [1]): < 2.9 mg/kg/day
NOAEL (rat [1]): ≥ 4.4 mg/kg/day
LEL (mouse [2]; group: developmental, developmental / developmental malformation / bone / supernumerary): 12 mg/kg/day
LOAEL (mouse [2]; [24]): > 20 mg/kg/day
NEL (mouse [2]; [24]): 4 mg/kg/day
NOAEL (mouse [2]; [24]): ≥ 20 mg/kg/day
LEL (mouse [2]; [25]): 12 mg/kg/day
LOAEL (mouse [2]; [25]): > 20 mg/kg/day
NEL (mouse [2]; [25]): 4 mg/kg/day
NOAEL (mouse [2]; [25]): ≥ 20 mg/kg/day
LEL (mouse [3]): 0.5 mg/kg/day
LOAEL (mouse [3]): > 0.5 mg/kg/day
NEL (mouse [3]): < 0.5 mg/kg/day
NOAEL (mouse [3]): ≥ 0.5 mg/kg/day

O=[As]([O-])([O-])[O-].[Na+].[Na+].[Na+] [Trisodium arsenate]
LEL (mouse [4]; [26]): 0.00625 mg/kg/day
NEL (mouse [4]; [26]): < 0.00625 mg/kg/day
LOAEL (mouse [4]; [27]): 0.625 mg/kg/day
NOAEL (mouse [4]; [27]): 0.00625 mg/kg/day

O=S1OCC2C(CO1)C1(Cl)C(Cl)=C(Cl)C2(Cl)C1(Cl)Cl (configuration not stated) [Endosulfan]
LEL (rat [5]; [28]): 18 mg/kg/day
LOAEL (rat [5]; [28]): > 18 mg/kg/day
NEL (rat [5]; [28]): 3 mg/kg/day
NOAEL (rat [5]; [28]): ≥ 18 mg/kg/day
LOAEL (rat [5]; [29]): 1.5 mg/kg/day
NOAEL (rat [5]; [29]): 0.5 mg/kg/day
LEL (rat [5]; [30]): 0.5 mg/kg/day
NEL (rat [5]; [30]): < 0.5 mg/kg/day
NEL (rat [6]; systemic / in life observation / body weight / body weight gain + systemic / pathology gross / kidney / enlarged): 0.75 mg/kg/day
LEL (rat [6]; [31]): 3.75 mg/kg/day
LOAEL (rat [6]; [31]): > 3.75 mg/kg/day
NOAEL (rat [6]; [31]): ≥ 3.75 mg/kg/day
LEL (rat [7]; [32]): 6 mg/kg/day
LOAEL (rat [7]; [32]): 6 mg/kg/day
NEL (rat [7]; [32]): 2 mg/kg/day
NOAEL (rat [7]; [32]): 2 mg/kg/day
LEL (rat [7]; [33]): 6 mg/kg/day
LOAEL (rat [7]; [33]): 6 mg/kg/day
NEL (rat [7]; [33]): 2 mg/kg/day
NOAEL (rat [7]; [33]): 2 mg/kg/day
LOAEL (mouse [8]; [34]): 2.6 mg/kg/day
NOAEL (mouse [8]; systemic / in life observation / mortality / mortality + systemic / pathology gross / urinary bladder / thickened): 0.9 mg/kg/day
LEL (mouse [8]; [35]): 0.3 mg/kg/day
NEL (mouse [8]; [35]): < 0.3 mg/kg/day
NEL (dog [9]; [36]): 0.25 mg/kg/day
NOAEL (dog [9]; [36]): 0.25 mg/kg/day
LEL (dog [9]; [37]): 0.75 mg/kg/day
LOAEL (dog [9]; [37]): 0.75 mg/kg/day
LEL (rat [10]): 2.9 mg/kg/day
LOAEL (rat [10]): 2.9 mg/kg/day
NEL (rat [10]): 0.6 mg/kg/day
NOAEL (rat [10]): 0.6 mg/kg/day
LEL (mouse [11]): 0.27 mg/kg/day
LOAEL (mouse [11]): 0.27 mg/kg/day
NEL (mouse [11]): < 0.27 mg/kg/day
NOAEL (mouse [11]): < 0.27 mg/kg/day
NEL (mouse [12]; [34]): 0.9 mg/kg/day
LEL (mouse [12]; [38]): 2.7 mg/kg/day
LOAEL (mouse [12]; [38]): > 2.7 mg/kg/day
NOAEL (mouse [12]; [38]): ≥ 2.7 mg/kg/day
LEL (rat [13]): 11.2 mg/kg/day
LOAEL (rat [13]): > 22.2 mg/kg/day
NEL (rat [13]): < 11.2 mg/kg/day
NOAEL (rat [13]): ≥ 22.2 mg/kg/day

CCOc1nc(NC)nc(NC(=O)NS(=O)(=O)c2ccccc2C(=O)OC)n1 [Ethametsulfuron-methyl]
LEL (rabbit; [39]): 1000 mg/kg/day
LOAEL (rabbit; [39]): 1000 mg/kg/day
NEL (rabbit; [40]): 250 mg/kg/day
NOAEL (rabbit; [40]): 250 mg/kg/day
LEL (rat [14]; [41]): 4000 mg/kg/day
LOAEL (rat [14]; [41]): 4000 mg/kg/day
NEL (rat [14]; [41]): 1000 mg/kg/day
NOAEL (rat [14]; [41]): 1000 mg/kg/day
LEL (rat [14]; [42]): 4000 mg/kg/day
LOAEL (rat [14]; [42]): 4000 mg/kg/day
NEL (rat [14]; [42]): 1000 mg/kg/day
NOAEL (rat [14]; [42]): 1000 mg/kg/day
LEL (rat [15]): 210 mg/kg/day
LOAEL (rat [15]): > 210 mg/kg/day
NEL (rat [15]): 21 mg/kg/day
NOAEL (rat [15]): ≥ 210 mg/kg/day
LEL (dog [16]): 478 mg/kg/day
LOAEL (dog [16]): 478 mg/kg/day
NEL (dog [16]): 87.3 mg/kg/day
NOAEL (dog [16]): 87.3 mg/kg/day

CC1(C)[C@H](C(=O)OCc2cccc(Oc3ccccc3)c2)[C@@H]1C=C(Cl)Cl [1RS cis-Permethrin]
LEL (rat [17]; [43]): 50 mg/kg/day
LOAEL (rat [17]; [43]): 50 mg/kg/day
NEL (rat [17]; [44]): 10 mg/kg/day
NOAEL (rat [17]; [44]): 10 mg/kg/day
LEL (mouse [18]; [45]): 10 mg/kg/day
NEL (mouse [18]; [45]): < 10 mg/kg/day
LOAEL (mouse [18]; [46]): > 250 mg/kg/day
NOAEL (mouse [18]; [46]): ≥ 250 mg/kg/day

O=Nc1ccc(Nc2ccccc2)cc1 [4-Nitrosodiphenylamine]
LOAEL (rat [19]; systemic / in life observation / body weight / body weight): 250 mg/kg/day
NOAEL (rat [19]; systemic / in life observation / body weight / body weight + systemic / pathology microscopic / liver / neoplastic nodule + systemic / …): 125 mg/kg/day
LEL (rat [19]; [47]): 125 mg/kg/day
NEL (rat [19]; [47]): < 125 mg/kg/day
LOAEL (mouse [20]; [48]): 638 mg/kg/day
NOAEL (mouse [20]; [48]): < 638 mg/kg/day
LEL (mouse [20]; [49]): 638 mg/kg/day
NEL (mouse [20]; [49]): < 638 mg/kg/day

COc1cc(-c2ccc(N)c(OC)c2)ccc1N.Cl.Cl [3,3'-Dimethoxybenzidine dihydrochloride]
LEL (rat [21]; [50]): 11 mg/kg/day
NEL (rat [21]; [50]): < 11 mg/kg/day
LOAEL (rat [21]; [51]): 109 mg/kg/day
NOAEL (rat [21]; [51]): 56 mg/kg/day
LOAEL (rat [22]; [52]): > 120 mg/kg/day
NOAEL (rat [22]; [52]): ≥ 120 mg/kg/day
LEL (rat [22]; [39]): 13 mg/kg/day
NEL (rat [22]; [39]): < 13 mg/kg/day
LEL (rat [23]): 6 mg/kg/day
LOAEL (rat [23]): 6 mg/kg/day
NEL (rat [23]): < 6 mg/kg/day
NOAEL (rat [23]): < 6 mg/kg/day

Reference: EPA's ToxRefDB 2
